Data set [1] concerns IL-6 release in macrophages. In words: LPS-IFN-γ-induced IL-6 release in macrophages (ELISA). Type of data set: cell-based, murine. To be noted: 50 μM, added at the onset of the culture. As for the experimental part:
(§1) Treatment of primary macrophages and RAW 264.7 cells. Primary macrophages (1.5×10^5 cells/well) and RAW 264.7 (4×10^4 cells/well) cells were grown in 96-well plates (nitrite assay), or 6-well plates (2×10^6 cells/well) for measurement of iNOS and COX-2 expression. Following 3 h incubation, at 37 C, 5% CO2 (macrophages were allowed to attach) cells were stimulated with LPS (0.5 μg/ml) and IFN-γ (100 U/ml) in the absence or presence of various concentrations of ILK inhibitors (all treatments were replicated six times). Cells were incubated for an additional 24 h, and cell free culture supernatants from each well were collected for NO and cytokine determination. The remaining cells were stained with crystal violet to determine effect of the inhibitors on cell survival.
Enzyme immunoassays for mouse IL-6. IL-6 levels were determined with PharMingen's OptElA ELISA set developed using an anti-mouse IL-6 Ab pair and mouse rIL-6 standard (PharMingen). Maxisorp F16 multiwell strips (Nunc, Roskilde, Denmark) were coated with anti-mouse IL-6 capture Ab (at recommended concentration) in 0.1 M NaHCO3, pH 9.5, 100 μl/well, overnight at 4° C. Plates were washed three times with 0.05% Tween 20 in PBS (PBST) and blocked for 1 h at room temperature with 200 μl/well of 10% FCS in PBS (blocking and dilution buffer). […] Absorbance was read at 450 nm with an EL 312e microplate reader. […]

The subject of data set [2] is RAW 264.7 cells. In words: LPS-IFN-γ-induced macrophage NO production (Griess nitrite assay), RAW 264.7 cells. Type of data set: cell-based, murine. Here is the method:
RAW 264.7 cells. RAW 264.7 cells, a murine macrophage cell line, were obtained from American Type Culture Collection (ATCC, Manassas, Va.) and cultured in DMEM supplemented with 10% FCS. Each treatment was performed in triplicate wells. RAW 264.7 cells (Balb/c background) produce a significant amount of nitric oxide upon treatment with IFN-γ alone, but require LPS for full activation. This property makes their behavior more like that of normal macrophages obtained from commonly used strains of mice.
(§2) Treatment of primary macrophages and RAW 264.7 cells. […] Following 3 h incubation, at 37 C, 5% CO2 (macrophages were allowed to attach) cells were stimulated with LPS (0.5 μg/ml) and IFN-γ (100 U/ml) in the absence or presence of various concentrations of ILK inhibitors (all treatments were replicated six times). Cells were incubated for an additional 24 h, and cell free culture supernatants from each well were collected for NO and cytokine determination. The remaining cells were stained with crystal violet to determine effect of the inhibitors on cell survival.
(§3) NO production. Following stimulation, the production of NO was determined by assaying culture supernatants for NO2^−, a stable reaction product of NO with molecular oxygen. Briefly, 100 μl of culture supernatant was reacted with an equal volume of Griess reagent at room temperature for 10 min. The absorbance at 550 nm was determined. All measurements were performed six times. The concentration of NO2^−was calculated by comparison with a standard curve prepared using NaNO2.
Effects of ILK inhibitors on LPS-IFN-γ-induced NO release. […] […] To compare the effect of the compounds across three different cell types, the NO release for each cell type was expressed relative to DMSO treated cells.
(Nitrite, measured by Griess reagent, commonly stands in for NO production.)

The test system of data set [3] is C57BL/6 cells (primary peritoneal macrophages). In words: LPS-IFN-γ-induced macrophage NO production (Griess nitrite assay), C57BL/6 cells. The class given is cell-based, mouse. Here is the method: (§4) Isolation of primary mouse macrophages. Peritoneal exudate macrophages were isolated by peritoneal lavage with ice-cold sterile physiological saline 24 h after intraperitoneal injection of BALB/c and CB57BL/6 mice with 0.3 ml of sterile Zymosan A (1 mg/0.5 ml 0.9% saline). Cells were washed, resuspended in RPMI 1640 supplemented with 2 mM L-glutamine, 100 units/ml penicillin, 100 μg/ml streptomycin, and 5% FBS.
as §1, §3
(§5) Effects of ILK inhibitors on LPS-IFN-γ-induced NO release. […] […] To compare the effect of the compounds across three different cell types, the NO release for each cell type was expressed relative to DMSO treated cells. […] For example, macrophages from Balb/c and C57BL/6 mice responded similarly to the treatment with the compounds.

For data set [4], the system named is BALB/c cells (primary peritoneal macrophages). The data set can be described thus: Cell survival by crystal violet staining, BALB/c cells. The class given is cell-based. To be noted: BALB/c cells. Here is the method:
as §2
(§6) Effect of ILK Inhibitors on suppression of NO production and cell survival. Twenty-four hours following treatment with the ILK inhibitors, aliquots from the cell-free supernatants were assayed for NO and IL-6 release. Surviving cells were stained and fixed (crystal violet 0.05% in 20% ethanol), to determine if the decrease in NO production was related to a decrease in cell number due to toxicity of the compounds.

The test system is the same in data set [5]. The data set can be described thus: LPS-IFN-γ-induced macrophage NO production (Griess nitrite assay), BALB/c cells. The class given is cell-based, mouse. As for the experimental part:
as §4, §1, §3, §5

Data set [6] deals with RAW 264.7 cells. The data set can be described thus: Cell survival by crystal violet staining, RAW 264.7 cells. Type of data set: cell-based. Here is the method:
as §1
Effect of ILK Inhibitors on suppression of NO production and cell survival. Twenty-four hours following treatment with the ILK inhibitors, aliquots from the cell-free supernatants were assayed for NO and IL-6 release. Surviving cells were stained and fixed (crystal violet 0.05% in 20% ethanol), to determine if the decrease in NO production was related to a decrease in cell number due to toxicity of the compounds. […] Only those compounds that induced strong inhibition of NO release, and caused no significant cell death were selected for further evaluation.

In data set [7] the test system is C57BL/6 cells (primary peritoneal macrophages). The data set can be described thus: Cell survival by crystal violet staining, C57BL/6 cells. The class given is cell-based. Here is the method: as §2, §6
The test system of a further data set is HUVEC cells. In words: In vitro Matrigel morphogenesis (tube formation) assay of VEGF stimulated HUVEC cells. The class given is cell-based, human. To be noted: 100 mM (so in the source). Here is the method:
In Vitro Angiogenesis. […] After 5 hours of incubation in a 5% CO2-humidified atmosphere at 37 °C, the three-dimensional organization of the cells was examined using an inverted photomicroscope. The cells were fixed with Crystal Violet (0.05% in 20% ethanol) and digitally photographed.
To determine the anti-angiogenic properties of ILK inhibitors, an in vitro Matrigel morphogenesis assay was established. This assay evaluates the ability of endothelial cells to differentiate into capillary-like structures, a crucial step during neovascularization. HUVEC cells when stimulated with VEGF and seeded onto Matrigel rapidly attach to the matrix and begin to migrate and interact with the extracellular matrix proteins present in the Matrigel. […] These capillary-like structures can be assessed by histology (FIG. 2). Samples are cut on a cross section and subsequent viewed using an electron microscope. Typically, cylindrical formations with a lumen are observed. A distinct difference in the morphology of tube formation on Matrigel, compared to other in vitro angiogenesis assays is a reduction in the proliferation of endothelial cells. […] Using this model system, both inhibitors and stimulators of angiogenesis can be assessed prior to in vivo testing.
The assay was established and reproducibility confirmed. SU5416, shown to inhibit angiogenesis in other assays, was also evaluated. […]

As to `C[C@]12CCC(=O)C=C1CC[C@@H]1[C@@H]2[C@@H](O)C[C@@]2(C)[C@H]1CC[C@]2(O)C(=O)CO` [hydrocortisone, Hydrocortisone, reference compound], the “Effect on IL-6 release (in words)” value in data set [1] is given as “moderately suppressed IL-6 release”.
Regarding `CNC(=N)NCCC[C@H](N)C(=O)O` [L-NMMA, N^G-Monomethyl-L-arginine], the “NO inhibition (%)” value in the data set on RAW 264.7 cells [2] (0.5 mM) was found to be 52%; with RAW 264.7 cells [2] (1 mM), 63%; in data set [3] (0.5 mM), 92%; in data set [3] (1 mM), 99%; in data set [5] (0.5 mM), 92%; in data set [5] (1 mM), 97%. Also, the “NO release (%)” value is recorded as 44.2% in the data set on RAW 264.7 cells [2] (0.5 mM); 31.7% with RAW 264.7 cells [2] (1 mM); 8.3% in data set [3] (0.5 mM); 1.1% in data set [3] (1 mM); 7.9% in data set [5] (0.5 mM); 3.1% in data set [5] (1 mM). Moreover, the “Survival (%)” value came to 97% in data set [4] (0.5 mM); 94% in data set [4] (1 mM); 92% with RAW 264.7 cells [6] (0.5 mM); 86% in the data set with RAW 264.7 cells [6] (1 mM); 97% in data set [7] (0.5 mM); 99% in data set [7] (1 mM).
In the case of `Cc1cc(C)c(/C=C2\C(=O)Nc3ccccc32)[nH]1` [SU5146, reference compound], the “Effect on endothelial cell morphogenesis (in words)” value in the data set on HUVEC cells was “did not affect endothelial cell morphogenesis”.
In the case of `C[C@@H]1C[C@H]2[C@@H]3CCC4=CC(=O)C=C[C@]4(C)[C@@]3(F)[C@@H](O)C[C@]2(C)[C@@]1(O)C(=O)CO` [Dex, Dexamethasone], the “NO inhibition (%)” value is −6% in the data set with RAW 264.7 cells [2] (0.5 mM); −9% with RAW 264.7 cells [2] (1 mM); 32% in data set [3] (0.5 mM); 53% in data set [3] (1 mM); 28% in data set [5] (0.5 mM); 36% in data set [5] (1 mM). Also, the “NO release (%)” value with RAW 264.7 cells [2] (0.5 mM) worked out at 103.6%; in the data set with RAW 264.7 cells [2] (1 mM), 87.1%; in data set [3] (0.5 mM), 67.9%; in data set [3] (1 mM), 46.6%; in data set [5] (0.5 mM), 60.6%; in data set [5] (1 mM), 46.7%. Further, the “Survival (%)” value in data set [4] (0.5 mM) came to 84%; in data set [4] (1 mM), 73%; in the data set on RAW 264.7 cells [6] (0.5 mM) it was 98%; with RAW 264.7 cells [6] (1 mM) it was 80%; in data set [7] (0.5 mM), 87%; in data set [7] (1 mM), 68%.

The record behind these values is US20050220779A1, “Integrin linked kinase modulation of macrophage activation” (priority 2001, published 2005).
